In US6737383B1, “Herbicidal oxadiazolidines” (priority 1999, dated 2004):

Columns and labels:
corn = test: Test B pre/postemergence corn; assay type: in vivo, Zea mays
Procedure, shortened: (§1)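 Test chemicals in a non-phytotoxic solvent mixture with surfactant were sprayed preemergence onto planted seeds and postemergence onto plants 2 to 18 cm tall (1- to 4-leaf stage). After twelve to sixteen days in a greenhouse, injury was visually rated against untreated controls from 0 (no effect) to 10 (complete control).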

rice = test: Test B flood test rice; assay type: in vivo, Oryza sativa; details: for Plant response rating, Rice (0 to 10 scale, 0 is no effect, 10 is complete control) / Rice plant response rating (0 to 10 scale, 0 is no effect, 10 is complete control): visual evaluation after twelve to sixteen days; for Rice plant response rating (0 to 10 scale, 0 is no effect, 10 is complete control): under heading Pre-emergence
Procedure, shortened: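 Read-out is a visual response score from 0 (no effect) to 10 (complete control), assigned by comparison with untreated controls. Treatment was applied at the 2-leaf stage, and plants stayed in the greenhouse for twelve to sixteen days before scoring.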

crabgrass = test: Test B pre/postemergence crabgrass; assay type: in vivo, Digitaria sanguinalis
Procedure, shortened: as §1

sugar beet = test: Test B pre/postemergence sugar beet; assay type: in vivo, Beta vulgaris
Procedure, shortened: as §1

[1] = Postemergence, Rate 125 g/ha, scale 0 to 10, 0 is no effect, 10 is complete control
[2] = Postemergence, Rate 250 g/ha, scale 0 to 10, 0 is no effect, 10 is complete control
[3] = Postemergence, Rate 500 g/ha, scale of 0 to 10 where 0 is no effect and 10 is complete control
[4] = Preemergence, Rate 62 g/ha, scale 0 to 10 (0 no effect, 10 complete control)
[5] = Preemergence, Rate 125 g/ha, scale of 0 to 10 where 0 is no effect and 10 is complete control
[6] = Preemergence, Rate 250 g/ha, scale 0 to 10, 0 is no effect, 10 is complete control
[7] = Preemergence, Rate 500 g/ha, scale 0 to 10, 0 is no effect, 10 is complete control
[8] = Rate 62 g/ha, Postemergence, scale of 0 to 10 where 0 is no effect and 10 is complete control
[9] = Rate 62 g/ha, flood test species, Pre-emergence
[10] = Rate 125 g/ha, flood test species
[11] = Rate 250 g/ha, Pre-emergence, flood-test species, scale 0 to 10, 0 is no effect, 10 is complete control
[12] = Postemergence, Rate 62 g/ha, scale of 0 to 10, 0 is no effect, 10 is complete control
[13] = Preemergence, Rate 125 g/ha, scale 0 to 10, 0 is no effect, 10 is complete control
[14] = Preemergence, Rate 500 g/ha, scale of 0 to 10 where 0 is no effect and 10 is complete control
[15] = Rate 250 g/ha, Postemergence, scale of 0 to 10 where 0 is no effect and 10 is complete control
[16] = Preemergence, Rate 62 g/ha, scale of 0 to 10 where 0 is no effect and 10 is complete control
[17] = Preemergence, Rate 125 g/ha, 0 is no effect, 10 is complete control
[18] = Preemergence, Rate 500 g/ha, scale 0 to 10 (0 no effect, 10 complete control)
[19] = Rate 125 g/ha, Postemergence, scale 0 to 10
[20] = Rate 500 g/ha, Postemergence, scale 0 to 10

Structure (SMILES): Cc1nc(Cl)sc1C(C)n1c(=O)on(C(=O)N(c2ccccc2)C(C)C)c1=O (stereo not drawn) [Compound 407]
- Plant response rating, Corn (corn; [1]): 0
- Plant response rating, Corn (corn; [2]): 0
- Corn plant response rating (corn; [3]): 0
- Plant response rating, Corn (corn; [4]): 0
- Plant response rating, Corn (corn; [5]): 0
- Corn plant response rating (corn; [6]): 0
- Corn plant response rating (corn; [7]): 0
- Corn plant response rating (corn; [8]): 0
- Plant response rating, Rice (0 to 10 scale, 0 is no effect, 10 is complete control) (rice; [9]): 0
- Rice plant response rating (0 to 10 scale, 0 is no effect, 10 is complete control) (rice; [10]): 0
- Rice plant response rating (rice; [11]): 0
- Rice plant response rating (rice; Rate 500 g/ha, Pre-emergence, flood test species, scale 0 to 10 (0 no effect, 10 complete control)): 0
- Plant response rating, Crabgrass (crabgrass; [1]): 0
- Plant response rating, Crabgrass (crabgrass; [2]): 1
- Crabgrass plant response rating (crabgrass; [3]): 3
- Plant response rating, Crabgrass (crabgrass; [4]): 0
- Plant response rating, Crabgrass (crabgrass; [5]): 2
- Crabgrass plant response rating (crabgrass; [6]): 5
- Crabgrass plant response rating (crabgrass; [7]): 9
- Crabgrass plant response rating (crabgrass; [8]): 0
- Plant response rating, Sugarbeets (sugar beet; [2]): 0
- Sugarbeets plant response rating (sugar beet; [3]): 0
- Plant response rating, Sugarbeets (sugar beet; [4]): 0
- Plant response rating, Sugarbeets (sugar beet; [5]): 0
- Sugarbeets plant response rating (sugar beet; [6]): 0
- Sugarbeets plant response rating (sugar beet; [7]): 0

Structure (SMILES): CCCCn1c(=O)on(C(=O)N(c2ccccc2)C(C)C)c1=O [Compound 556]
- Corn plant response rating (corn; [12]): 0
- Corn plant response rating (corn; [1]): 0
- Plant response rating, Corn (corn; [3]): 0
- Corn plant response rating (corn; [4]): 0
- Corn plant response rating (corn; [13]): 0
- Corn plant response rating (0 to 10 scale) (corn; Preemergence, Rate 250 g/ha): 0
- Corn plant response rating (corn; [14]): 0
- Plant response rating, Corn (corn; [15]): 0
- Plant response rating, Rice (0 to 10 scale, 0 is no effect, 10 is complete control) (rice; [9]): 0
- Rice plant response rating (0 to 10 scale, 0 is no effect, 10 is complete control) (rice; [10]): 0
- Rice plant response rating (rice; Rate 250 g/ha, Pre-emergence (flood test species), scale 0 to 10, 0 is no effect, 10 is complete control): 0
- Rice plant response rating (rice; Rate 500 g/ha, Pre-emergence section of Table B, 0 to 10 scale (0 no effect, 10 complete control)): 0
- Crabgrass plant response rating (crabgrass; [12]): 0
- Crabgrass plant response rating (crabgrass; [1]): 2
- Plant response rating, Crabgrass (crabgrass; [3]): 2
- Crabgrass plant response rating (crabgrass; [4]): 9
- Crabgrass plant response rating (crabgrass; [13]): 9
- Crabgrass plant response rating (0 to 10 scale) (crabgrass; Preemergence, Rate 250 g/ha): 9
- Crabgrass plant response rating (crabgrass; [14]): 10
- Plant response rating, Crabgrass (crabgrass; [15]): 2
- Sugarbeets plant response rating (sugar beet; [12]): 0
- Plant response rating, Sugarbeets (sugar beet; [3]): 0
- Sugarbeets plant response rating (sugar beet; [4]): 0
- Sugarbeets plant response rating (sugar beet; [13]): 0
- Sugarbeets plant response rating (0 to 10 scale) (sugar beet; Preemergence, Rate 250 g/ha): 0
- Sugarbeets plant response rating (sugar beet; [14]): 0
- Plant response rating, Sugarbeets (sugar beet; [15]): 0

Structure (SMILES): COc1nc(OC)nc(N(C(=O)n2oc(=O)n(-c3c(C)cccc3C)c2=O)C(C)C)n1 [Compound 180]
- Corn plant response rating (corn; [16]): 0
- Corn plant response rating (0 to 10 scale) (corn; [17]): 0
- Corn plant response rating (corn; [6]): 0
- Corn plant response rating (corn; [18]): 0
- Corn plant response rating (corn; [8]): 0
- Corn plant response rating (corn; [19]): 0
- Plant response rating (0 to 10; 0 is no effect, 10 is complete control), Corn (corn; Rate 250 g/ha, Postemergence): 0
- Corn plant response rating (corn; [20]): 0
- Rice plant response rating (rice; Rate 62 g/ha, headed Pre-emergence (flood test species), scale 0 to 10 (0 no effect, 10 complete control)): 0
- Rice plant response rating (rice; Rate 125 g/ha, Pre-emergence, flood test species, scale 0 to 10 where 0 is no effect and 10 is complete control): 0
- Rice plant response rating (rice; [11]): 0
- Plant response rating, Rice (rice; Rate 500 g/ha, headed Pre-emergence (flood test species), scale 0 to 10 (0 no effect, 10 complete control)): 0
- Crabgrass plant response rating (crabgrass; [16]): 0
- Crabgrass plant response rating (0 to 10 scale) (crabgrass; [17]): 0
- Crabgrass plant response rating (crabgrass; [6]): 0
- Crabgrass plant response rating (crabgrass; [18]): 0
- Crabgrass plant response rating (crabgrass; [8]): 0
- Crabgrass plant response rating (crabgrass; [19]): 0
- Plant response rating (0 to 10; 0 is no effect, 10 is complete control), Crabgrass (crabgrass; Rate 250 g/ha, Postemergence): 0
- Crabgrass plant response rating (crabgrass; [20]): 0
- Sugarbeets plant response rating (sugar beet; [16]): 0
- Sugarbeets plant response rating (0 to 10 scale) (sugar beet; [17]): 0
- Sugarbeets plant response rating (sugar beet; [6]): 0
- Sugarbeets plant response rating (sugar beet; [18]): 0
- Sugarbeets plant response rating (sugar beet; [8]): 0
- Sugarbeets plant response rating (sugar beet; [19]): 0
- Plant response rating (0 to 10; 0 is no effect, 10 is complete control), Sugarbeets (sugar beet; Rate 250 g/ha, Postemergence): 0
- Sugarbeets plant response rating (sugar beet; [20]): 0
